These results are taken from article PMC6099588.

Each structure is given as a SMILES string.

Data set [1] has as its system HCVcc (Jc1/JFH genotype 2a). The class given is cell-based, hepatitis C virus.
The next data set in a line: in vitro. Particulars: human, CC50, Huh-7.5 cells, MTS assay, 72 h.
Another data set has as its system HCV E2 glycoprotein. Kind of data set: Western blot of E2 glycoprotein accumulation in transfected HEK293T cells. Particulars: anti-E2 MAb AP33, 48 h post transfection.
The test system of data set [2] is HCV replication (Huh7-J17 replicon cell line). Kind of data set: HCV replicon luciferase assay in Huh7-J17 cells. Particulars: 72 h; for effect on HCV replication process (luciferase activity): Huh7-J17 replicon cells, different doses.
A short description of data set [3]: MTS cytotoxicity alongside the Huh7-J20 SEAP assay. The conditions noted are these: human, Huh7-J20 cells.
The next data set relates to influenza A virus. Particulars: cited from earlier work; for antiviral activity against influenza A virus: among compounds 1–9.
Data set [4] has as its system HCVpp. The conditions noted are these: 50 μM, added to HEK-293T producer cells; luciferase in infected Huh-7.5 cells.
The next data set deals with HCVcc. Kind of data set: HCVcc dose-response SEAP reporter assay in Huh7-J20 cells. Particulars: for IC50: Hepatitis C virus, Huh7-J20, 72 h; for selectivity index (SI), CC50/IC50 ratio: Huh7-J20 cells, HCVcc.
In data set [5] the test system is classical swine fever virus. The conditions noted are these: cited from earlier work.
For data set [6], the system named is HCVpp. Nature of the data set: microbe, parasite or virus in culture. Particulars: Hepatitis C virus, read-out: inhibition of infection (HCVpp).

Consider `CC(=O)O[C@H]1[C@H](C)O[C@H](OC[C@H]2O[C@@H](n3ccc(=O)[nH]c3=O)[C@@H]3OC(C)(C)O[C@@H]32)C[C@@H]1O[Si](C)(C)C(C)(C)C` [Compound 1], for which, in data set [1], the “anti-HCV activity (reduction of pseudoplaques)” value was “no obvious anti-HCV activity”. The compound also came in with a cytotoxic concentration (CC50) in the data set “in vitro” of 85 µM.

On to `CC(=O)O[C@H]1[C@H](C)O[C@H](OC[C@H]2O[C@@H](n3ccc(=O)n(C(=O)c4ccccc4)c3=O)[C@@H]3OC(C)(C)O[C@@H]32)C[C@@H]1O[Si](C)(C)C(C)(C)C` [Compound 2], for which the “anti-HCV activity (reduction of pseudoplaques)” value in [1] is reported as “high antiviral activity”. Further, the “accumulation of E2 glycoprotein in HEK293T cells” value with HCV E2 glycoprotein is recorded as “no change in the accumulation”. For the same compound, the “effect on HCV replication process (luciferase activity)” value in [2] is listed as “no effect on HCV replication process”. In addition, the values for the CC50 (in [3]; in the data set “in vitro”) were 113 µM and 119 µM, respectively. Moreover, the “antiviral activity against influenza A virus” value with influenza A virus is on record as “most active”. Also, the “reduction of HCVpp production and/or infectivity relative to DMSO control” value in the data set on HCVpp [4] is given as “about 80%”. The compound also had an IC50 with HCVcc of 8.9 µM. Also, the “selectivity index (SI), CC50/IC50 ratio” value with HCVcc amounted to 12.7.

`CC1(C)O[C@@H]2[C@H](O1)[C@@H](CO[C@@H]1C[C@@H](OCc3ccccc3)[C@H](OCc3ccccc3)[C@@H](COCc3ccccc3)O1)O[C@H]2n1ccc(=O)[nH]c1=O` [Compound 3]: the “anti-HCV activity (reduction of pseudoplaques)” value in [1] was “minor anti-HCV activity”. Besides, the CC50 in “in vitro” turned out to be 89 µM.

For the compound `CC1(C)O[C@@H]2[C@H](O1)[C@@H](CO[C@@H]1C[C@@H](OCc3ccccc3)[C@H](OCc3ccccc3)[C@@H](COCc3ccccc3)O1)O[C@H]2n1ccc(=O)n(C(=O)c2ccccc2)c1=O` [Compound 4], the “anti-HCV activity (reduction of pseudoplaques)” value in data set [1] is “high antiviral activity”. In addition, in the data set on HCV E2 glycoprotein, the “accumulation of E2 glycoprotein in HEK293T cells” value was “no change in the accumulation”. Also, the “effect on HCV replication process (luciferase activity)” value in data set [2] is listed as “no effect on HCV replication process”. Besides, the 50% cytotoxic concentration (CC50) in data set [3] was found to be 142 µM. Moreover, the 50% cytotoxic concentration (CC50) in “in vitro” came to 151 µM. For the same compound, in the data set on influenza A virus, the “antiviral activity against influenza A virus” value is given as “most active”. Moreover, the “reduction of HCVpp production and/or infectivity relative to DMSO control” value in the data set with HCVpp [4] is reported as “about 80%”. In the data set with HCVcc, half-maximal inhibition (IC50) was put at 2.1 µM and the “selectivity index (SI), CC50/IC50 ratio” value came out at 67.6.

Take `CC1(C)O[C@@H]2[C@H](O1)[C@@H](CO[C@@H]1C[C@@H](OCc3ccccc3)[C@H](OCc3ccccc3)[C@@H](CO[Si](C)(C)C(C)(C)C)O1)O[C@H]2n1ccc(=O)[nH]c1=O` [Compound 5]: in data set [1], the “anti-HCV activity (reduction of pseudoplaques)” value is “no obvious anti-HCV activity”. Further, in the data set “in vitro”, it took 83 µM to reach half-maximal cytotoxicity (CC50).

For `CC(=O)OC[C@H]1O[C@H](OC[C@H]2O[C@@H](n3ccc(=O)[nH]c3=O)[C@@H]3OC(C)(C)O[C@@H]32)C[C@@H](OC(C)=O)[C@@H]1OC(C)=O` [Compound 6], the “anti-HCV activity (reduction of pseudoplaques)” value in data set [1] is recorded as “no obvious anti-HCV activity”. Also, the midpoint of cytotoxicity in the data set “in vitro”, the CC50, lay at 210 µM.

As to `CC(=O)OC[C@H]1O[C@H](OC[C@H]2O[C@@H](n3ccc(=O)n(Cc4ccccc4)c3=O)[C@@H]3OC(C)(C)O[C@@H]32)C[C@@H](OC(C)=O)[C@@H]1OC(C)=O` [Compound 8], the “anti-HCV activity (reduction of pseudoplaques)” value in [1] is “minor anti-HCV activity”. In “in vitro”, this compound had a cytotoxic concentration (CC50) of 223 µM.

Turning to `O=c1ccn([C@@H]2O[C@H](CO[C@@H]3C[C@@H](O)[C@H](O)[C@@H](CO)O3)[C@@H](O)[C@H]2O)c(=O)[nH]1` [Compound 9], the “anti-HCV activity (reduction of pseudoplaques)” value in [1] was “minor anti-HCV activity”. In the data set “in vitro”, this compound yielded a CC50 of 245 µM.

Turning to `CC1(C)O[C@@H]2[C@H](O1)[C@@H](CO[C@@H]1C[C@@H](OCc3ccccc3)[C@H](OCc3ccccc3)[C@@H](CO[Si](C)(C)C(C)(C)C)O1)O[C@H]2n1ccc(=O)n(C(=O)c2ccccc2)c1=O` [IW3], in data set [5], the “ability to inhibit classical swine fever virus” value was “most active”. The “ability to inhibit influenza A virus” value with influenza A virus is listed as “most active”.

As to `CC1(C)O[C@@H]2[C@H](O1)[C@@H](CO[C@@H]1C[C@@H](OCc3ccccc3)[C@H](OCc3ccccc3)[C@@H](CO)O1)O[C@H]2n1ccc(=O)n(C(=O)c2ccccc2)c1=O` [IW7], in [5], the “ability to inhibit classical swine fever virus” value is “most active”. The “ability to inhibit influenza A virus” value with influenza A virus is “most active”.

For `CC(C)OC(=O)[C@H](C)N[P@](=O)(OC[C@H]1O[C@@H](n2ccc(=O)[nH]c2=O)[C@](C)(F)[C@@H]1O)Oc1ccccc1` [Sofosbuvir, reference compound], it took 0.028 µM to reach half-maximal inhibition in data set [2] (Hepatitis C virus) (IC50). For the same compound, in the data set on HCVcc, the IC50 turned out to be 0.26 µM and the “selectivity index (SI), CC50/IC50 ratio” value is given as “about 120”.

Take `CC(=O)N[C@H]1[C@@H](O[C@@H]2O[C@H](C[C@@H](O)[C@H]3O[C@@H](n4ccc(=O)[nH]c4=O)[C@H](O)[C@@H]3O)[C@H](O)[C@H](O)[C@H]2NC(=O)/C=C/CCCCCCCCCC(C)C)O[C@H](CO)[C@@H](O)[C@@H]1O` [Tunicamycin]: in the data set on HCVpp [6], the inhibition at 5 µM is more than 80%.
